Assay results as given in EP0213490A2, “Colour-photographic recording material” (Agfa-Gevaert AG, priority 1985, dated 1987).

How the values were obtained:
[1] = Solubility determination in ethyl acetate (parts by weight of solvent needed to dissolve one part of yellow dye); format: physicochemical; details: Ethylacetat, 60°C
Method: Von den erfindungsgemäßen Verbindungen II-1, 11-5 und III-1 sowie von den strukturanalogen Vergleichsverbindungen V-1, V-2, V-3, V-4, V-5 und V-6 wurden deren Löslichkeit in Ethylacetat bei 60°C bestimmt. Hierzu wurde ermittelt, wieviele Gewichtsteile Lösungsmittel zum Lösen eines Gewichtsteils Gelbfarbstoff erforderlich sind. Die miteinander zu vergleichenden Farbstoffe unterschieden sich jeweils ausschließlich in der Substitution des Phenylazorestes

[2] = Dissolving the mask coupler in tricresyl phosphate/ethyl acetate for dispersion preparation; format: physicochemical; details: 55°C
Method: Von der erfindungsgemäßen Verbindung 11-1 wurde die Dispersion la und von der betreffenden Vergleichsverbindung V-2 wurde die Dispersion lb jeweils nach der nachfolgend beschriebenen Vorschrift hergestellt. 100 g Maskenkuppler werden in einer Abmischung aus 100 g Trikresylphosphat und 300 g Ethylacetat bei 55^*C gelöst. […] Die Lösung wird in 1 kg einer 7,5 %igen wäßrigen Gelatine, die ebenfalls auf 55°C erhitzt ist und mit 10 g Alkanol XC versehen war, mit einem hochtourigen Mischer einemulgiert. Anschließend wurde das niedrig siedende Lösungsmittel im Vakuum entfernt und die zurückbleibende Dispersion bei 6°C erstarrt.
Gemäß der im Beispiel 2 beschriebenen allgemeinen Vorschrift wurde aus der erfindungsgemäßen Verbindung 11-5 die Dispersion 2a und aus der betreffenden Vergleichsverbindung V-4 die Dispersion 2b hergestellt. (Die Vergleichsverbindung V-4 mußte, damit sie in Lösung ging, in der hydrophoben Dispersionsphase auf 70°C erhitzt werden).

SMILES	1 Gew.-Teil Verbindung löst sich in X Gew.-Teilen Ethyl-acetat [1]	Dissolution of 100 g Maskenkuppler in 100 g Trikresylphosphat and 300 g Ethylacetat [2]
CCCCCCCCCCCCCC(=O)Nc1ccc(Cl)c(NC2=NN(c3c(Cl)cc(Cl)cc3Cl)C(=O)C2N=Nc2ccc(OCCC)c(OCCC)c2)c1 (centres unmarked) [V-3]	23 Gew.-Teilen Ethyl-acetat	–
CCCCCCCCCCCCCC(=O)Nc1ccc(Cl)c(NC2=NN(c3c(Cl)cc(Cl)cc3Cl)C(=O)C2N=Nc2ccc(OC)c(OC)c2)c1 (centres unmarked) [V-1]	15 Gew.-Teilen Ethyl-acetat	–
CCCCCCCCCCCCCC(=O)Nc1ccc(Cl)c(NC2=NN(c3c(Cl)cc(Cl)cc3Cl)C(=O)C2N=Nc2ccc(OCC)c(OCC)c2)c1 (centres unmarked) [V-2]	19 Gew.-Teilen Ethyl-acetat	mußte neben Ethylacetat noch soviel Tetrahydrofuran zugesetzt werden, daß sie bei 55 °C in Lösung ging
CCCCCCCCCCCCCC(=O)Nc1ccc(Cl)c(NC2=NN(c3c(Cl)cc(Cl)cc3Cl)C(=O)C2N=Nc2ccc(OC(C)C)c(OC(C)C)c2)c1 (centres unmarked) [II-1]	2,5 Gew.-Teilen Ethyl-acetat	–
